Assays:
human G-CSF production = test: In vitro enhancement of G-CSF production in PHA-stimulated PBMNC's (ELISA of culture supernatant); type: cell-based; conditions: PBMNC's with 5µg/ml PHA
Procedure: (§1) In order to determine the effect of compound AA on human G-CSF production, human peripheral blood mononuclear cells (PBMNC's) were prepared (as described in Ficoll-Paque: For in vitro isolation of lymphocytes (booklet) 1983 Pharmacia, Uppsala Sweden; which is hereby incorporated by reference) and cultured as described (in Oster et al, 1989 Blood 73:64. which is hereby incorporated by reference) with 5µg/ml phytohemagglutin (PHA) in the presence of varying concentrations of compound AA or vehicle (0.1% dimethylsulfoxide, DMSO). After 40 hours, culture supernatant was collected and cytokine levels measured by ELISA (R&D Systems, Minneapolis MN). Alternatively mRNA was prepared by standard protocols from these cells after 24 hour incubation, reverse-transcribed and subjected to polymerase chain reaction (PCR)

[1] = tested on: bone marrow steady-state G-CSF mRNA; test: Endogenous G-CSF in CY-dosed mice: bone marrow steady-state G-CSF mRNA by PCR; type: in vivo; conditions: CY-dosed mice administered compound AA
Procedure: Acceleration of neutrophil recovery by compound AA may occur by stimulating neutrophil development at the level of the bone marrow (see Demetri et al 1991 Blood 78: 2791).To confirm that compound AA was acting in vivo by enhancing endogenous G-CSF production, bone marrow steady-state G-CSF mRNA levels were determined by PCR.

G-CSF mRNA = test: Steady-state G-CSF mRNA levels in stimulated cell cultures (reverse transcription, PCR); type: cell-based, human
[2] = tested on: mice made neutropenic with CY; test: Comparison of compound AA with rhG-CSF in the CY neutropenia model; type: in vivo; conditions: compound AA at 40mg/kg daily, granulocyte levels in peripheral blood on day 5
Procedure: Exogeneous G-CSF administration is now standard therapy for patients undergoing a neutropenic episode In order to compare compound AA treatment with G-CSF therapy in the CY model described above, we administered either compound AA or recombinant human G-CSF daily to mice made neutropenic with CY. Granulocyte levels in peripheral blood were determined on day 5.

[3] = tested on: TNFα, TNFβ, IL-1α, IL-1 β, IL-3, IL-6, IL-8, or GM-CSF; test: Specificity: production of other cytokines in the PBMNC culture (ELISA); type: cell-based, human; conditions: PHA-stimulated PBMNC's
Procedure: as §1
This effect was specific for G-CSF, since no change in the production of TNFα, TNFβ, IL-1α, IL-1 β, IL-3, IL-6, IL-8, or GM-CSF was observed.

BALB/cJ mice = test: In vivo acceleration of recovery from neutropenia in cyclophosphamide-treated mice (flow cytometry of granulocytes); conditions: for granulocyte recovery: return to normal numbers: 40 mg/kg daily from day 1 after single sublethal dose of CY on day 0
Procedure: To test the activity of compound AA in enhancing peripheral neutrophil numbers and accelerating recovery of the neutrophil compartment, BALB/cJ mice were rendered neutropenic by treatment with a single sublethal dose of CY on day 0. Mice were then treated daily, starting on day 1, with 40 mg/kg compound AA or vehicle (carboxymethyl cellulose CMC) and sacrificed on days 3, 5, 6, 8 or 10 and granulocyte populations in peripheral blood and spleen analyzed by flow cytometry. Granulocytes were detected using the RB6-8C5 antibody, specific for granulocytes (see Hestdal et al 1991 J. Immunol. 147:22. which is hereby incorporated by reference) and the Mac-1 antibody, specific for myeloid cells (see Springer et al JEur. J. lmmunol. 9: 301). […] Compound AA administration accelerated granulocyte recovery in both blood and spleen, with a return to normal numbers by day 5 in blood and day 4 in spleen. These granulocytes were confirmed to be exclusively segmented neutrophils by cytological examination. Neutrophil recovery was delayed by 1-2 days in CY-dosed mice given vehicle, compared to compound AA - treated animals. No changes in percentage or number of monocytes were observed.

[4] = 40 mg/kg daily, CY-treated mice

CC(=O)Nc1ccc(S(=O)(=O)Nc2nc(-c3ncccc3C)cc3cccnc23)cc1 [compound AA]
EC50 (human G-CSF production; Homo sapiens, G-CSF levels, 40 hours, read-out: effective concentration50 (EC50)): 15 µM | increase in G-CSF levels (human G-CSF production; supernatant after 40 hours, ELISA): 4-5 fold | bone marrow G-CSF mRNA levels [1]: enhanced | Steady-state G-CSF mRNA levels (G-CSF mRNA; LPS-stimulated monocytes): increased | Steady-state G-CSF mRNA levels (G-CSF mRNA; PHA-stimulated PBMNC's): increased | ability to enhance peripheral blood neutrophil numbers versus 250mg/kg rhG-CSF [2]: comparable | ability to enhance peripheral blood neutrophil numbers versus 50-125mg/kg rhG-CSF [2]: greater | change in the production of TNFα, TNFβ, IL-1α, IL-1 β, IL-3, IL-6, IL-8, or GM-CSF [3]: no change | delay of neutrophil recovery in CY-dosed mice given vehicle, compared to compound AA-treated animals (BALB/cJ mice; 40 mg/kg daily): 1 to 2 days | changes in percentage or number of monocytes (BALB/cJ mice; [4]): No changes | gross toxicity or abnormalities (BALB/cJ mice; [4]): No evidence of gross toxicity or abnormalities | granulocyte recovery: return to normal numbers (BALB/cJ mice; blood): ≤ 5 days | granulocyte recovery: return to normal numbers (BALB/cJ mice; spleen): ≤ 4 days

Reference: patent EP0912571B1, “NAPHTHYRIDINES WHICH AFFECT IL-4 AND G-CSF” (SCHERING CORPORATION, priority 1996, dated 1997)
